Series [1] deals with DHL-4 cells. Kind of series: Adriamycin (ADM) cytotoxicity of DHL-4 cells with sCD40L and IDEC-131, Alamar Blue assay. The series is classed as cell-based. Particulars: 5 days. On the procedure:
Initially, the minimum concentration of ADM cytotoxic to DHL-4 cells was determined by exposing DHL-4 cells for 4 hours to different concentrations of ADM. The cell cytotoxicity of DHL-4 cells after 5 days in culture was measured by Alamar Blue, a dye-reduction assay by live cells (see Gazzano-Santoro et al., J. Immunol. Meth. 202: 163-171 (1997)). Briefly, 1×10^5 DHL-4 cells in growth medium (RMPI-1640 plus 10% Fetal Calf Serum) were incubated with varying concentrations of ADM (1×10^−6 M to 1×10^−8 M) in cell culture tubes at 37° C. for 4 hours. […] Following incubation, plates were cooled by incubating at room temperature for 10 minutes on a shaker, and the intracellular reduction of the dye was determined. Fluorescence was read using a 96-well fluorometer with excitation at 530 nm and emission at 590 nm. The results are expressed as relative fluorescence units (RFU). The percentage of cytotoxicity was calculated as follows: […]
DHL-4 cells (0.5×10^6 cells/ml) were incubated in the presence of 10 μg/ml of soluble CD40L (sCD40L, P. A. Brams, E. A. Padlan, K. Hariharan, K. Slater, J. Leonard, R. Noelle, and R. Newman, “A humanized anti-human CD154 monoclonal antibody blocks CD154-CD40 mediated human B cell activation,” (manuscript submitted)) for 1 hour at 37° C. […] After 5 days, the cytotoxicity was measured by Alamar Blue dye-uptake assay, as described.

The subject of series [2] is HLA-DR expression on CD19+ CLL cells. As to the kind of experiment: HLA-DR expression on CD19+ CLL cells by flow cytometry. The series is classed as cell-based, human. Particulars: for HLA-DR+ % Positive / HLA-DR+ MFI: CD19+ B-cells, 5 μg/ml CD40L. The procedure:
To determine whether the CD40L-CD40 signal transduction pathway is intact, CLL cells from CLL patients were cultured (5×10^5 cells/ml) with and without 5 μg/ml of CD40L at 37° C. At 48 hours and 144 hours, the class II molecule, HLA-DR expression, was determined on […] cells by flow cytometry using standard procedures. Briefly, cultured lymphocytes were harvested at different time points and analyzed for surface expression of molecules using antibodies coupled to either fluorescein (FITC) or phycoerythrin (PE) for single or double staining using a FACScan (Becton-Dickinson) flow cytometer. To stain for flow cytometry, 1×10^6 cells in culture tubes were incubated with appropriate antibodies as follows: anti-CD45-FITC to gate lymphocyte population on a scatter plot; anti-CD19-PE (Pharmingen. Cat. #30655) or anti-CD20-FITC (Pharmingen; Cat. #33264) antibodies to determine the CD19^+ and/or […] B-cells; anti-CD3-FITC antibodies (Pharmingen; Cat. #30104) to gate-off the T cells; anti-CD19-RPE and anti-HLA-DR-FITC antibodies (Pharmingen; Cat. #32384) to determine the Pclass II expression on CD19^+ cells. Cells were washed once by centrifugation (at 200×g, for 6 min.) with 2 ml cold PBS and incubated with antibody for 30 min. on ice, after which the cells washed once, fixed in 0.5% paraformaldehyde and stored at 4° C. until analyzed. Flow cytometry data was acquired on FACsan and analyzed using WinList software (Verity Software House). The machine was set to autogating to allow examination of quadrants containing cells that were single stained with either RPE or FITC, unstained or doubly stained.

The test system of series [3] is B-CLL cells. As to the kind of experiment: Survival of B-CLL cells in culture, Trypan blue dye exclusion. The series is classed as cell-based, human. To be noted: for % Viability (+) CD40L: sCD40L 5 μg/ml. The procedure: Peripheral blood mononuclear cells (PBMC) were isolated from a CLL patient's blood using a Ficoll-Hypaque gradient centrifulation. Viability was determined by Tryan blue dye exclusion and was >98%. […] CLL cells (PBMC) were cultured in CLL growth medium (e.g. RPMI-1640 medium supplemented with 5% FCS or 2% of autologous donor plasma, supplemented with 2 mM L-Glutamine and 100 U/ml Penicillin-Streptomycin). In addition. for some experiments, CD19^+ B-cells were purified using CD19^+ Dynabeads™ as per manufacture's instructions (Dynal, Cat. #111.03/111.04) and cultured as above. CLL or purified B-CLL cells cultured in growth medium mostly under went spontaneous apoptotic cell death. […] Table II indicates the cell viability of CD19^+ B-CLL cells grown in the presence or absence of sCD40L (5 μg/ml) at different time points and indicates the longer survival of CLL cells. B-CLL cells from Patient #1 cultured with sCD40L had ≧60% viability for greater than 2 weeks, whereas cells grown in the absence of sCD40L had less than 10% viability.

Series [4] relates to B-CLL cells. As to the kind of experiment: Growth and survival of B-CLL cells after 7 days in culture, Alamar Blue assay. Type of series: cell-based, human. To be noted: cultures with sCD40L.
Experimental: Cells in one tube were mixed with sCD40L (5 μl/ml) in equal volume of growth medium, whereas the other tube was incubated with equal volume of growth medium as control. […] Seven days later, cell survival/death in culture was determined by Alamar Blue assay, as described above.

As for `COc1cccc2c1C(=O)c1c(O)c3c(c(O)c1C2=O)C[C@@](O)(C(=O)CO)C[C@@H]3O[C@H]1C[C@H](N)[C@H](O)[C@H](C)O1` [ADM, adriamycin], in series [1] (exposed to ADM in the absence of sCD40L), the “cytotoxicity to DHL-4 cells (in words)” value is “increased cytotoxicity”.

On to sCD40L: soluble CD40L, for which the “survival of DHL-4 cells after ADM treatment (in words)” value in series [1] (sCD40L 10 μg/ml, ADM 2×10^−7 M-4×10^−8 M for 4 hours) is “prolonged survival”. The “HLA-DR+ % Positive” value in series [2] (48 hrs) came to 88%; in series [2] (144 hrs), 95%. The “HLA-DR+ MFI” value in series [2] (48 hrs) is 101; in series [2] (144 hrs), 2943. In addition, the “HLA-DR expression on B-CLL cells (in words)” value in series [2] (cultured in the presence of sCD40L vs not) is reported as “higher level of HLA-DR expression”. Moreover, the “% Viability (+) CD40L” value in series [3] (B-CLL Patient #1, 0 Hours) is “≧90%”; in series [3] (B-CLL Patient #1, 48 Hours), 90%; in series [3] (B-CLL Patient #1, 96 Hours) it was 77%; in series [3] (B-CLL Patient #1, 144 Hours), 72%; in series [3] (B-CLL Patient #2, 0 Hours), “≧90%”; in series [3] (B-CLL Patient #2, 72 Hours), 72%. The “% Viability (+) CD40L” value came out at 65% in series [3] (B-CLL Patient #2, 96 Hours) and 51% in series [3] (B-CLL Patient #2, 144 Hours). The “viability of B-CLL cells cultured with sCD40L” value in series [3] (Patient #1, for greater than 2 weeks) is on record as at least 60%. In series [3] (cultured in the presence of sCD40L), the “viability of CLL or purified B-CLL cells in culture (in words)” value is “extended their viability”. The “cell survival of B-CLL cells (in words)” value in series [4] is on record as “cell survival”.

The values above are taken from patent US20030180292A1, “Treatment of B cell malignancies using anti-CD40L antibodies in combination with anti-CD20 antibodies and/or chemotherapeutics and radiotherapy” (IDEC PHARMACEUTICALS, priority 2002, published 2003).
